Data set [1] relates to PTPN22. Briefly: PTPN22 expression by western blot in shRNA-transduced RAMOS B cell line. In kind it is cell-based. The note with it: human RAMOS B cell line, GFP+ shRNA+ vs GFP-. The procedure: FIG. 10A depicts flow cytometry analysis of Ramos B cells transduction efficiency. Ramos B cells were transduced with three different GFP-tagged shRNA PTPN22 expressing lentiviruses and probed for GFP expression. […] Percentage of knock-down is indicated. FIG. 10B depicts the frequencies of polyreactive new emigrant B cells from sorted GFP− fractions were determined. […] For each B-cell fraction, the frequency of reactive (filled area) and non-reactive (open area) clones is summarized in pie charts with the total number of clones tested indicated in the center. FIG. 10C depicts the frequencies of HEp-2 reactive new emigrant B cells from sorted GFP− fractions were determined. […] For each B-cell fraction, the frequency of reactive (filled area) and non-reactive (open area) clones is summarized in pie charts with the total number of clones tested indicated in the center. FIG. 10D depicts the frequencies of antinuclear new emigrant B cells are compared between GFP− and GFP+ shRNA+ new emigrant B cells. […]
Total cell lysates were separated by SDS page, transferred to PVDF membranes, probed with mouse anti-PTPN22 (Invitrogen) and detected by chemiluminescence (Amersham ECL Prime Western Blotting detection Reagent) using a GBox documentation system (Syngene). For quantification, blots were stripped with stripping buffer (Pierce) and reprobed with a mouse anti-β-Actin antibody (Sigma-Aldrich).
(A western blot detects proteins with antibodies after separation by electrophoresis.)

Data set [2] relates to SHIP1. Kind of data set: Phosphorylation kinetics of SHIP1 in RAMOS cells after BCR triggering (immunoblot). In kind it is cell-based, human. The note with it: LTV-1 5 μg/mL. The procedure: (§1) FIG. 40A depicts the phosphorylation of SHIP1, Lyn and ERK1/2 in total cell lysates of Ramos B cells treated or not with the PTPN22 inhibitor LTV-1 (5 μg/mL) for the indicated times. The cells were subjected to immunoblot analysis of P-LYN P-SHIP1, P-ERK1/2, and β-ACTIN. FIG. 40B depicts flow cytometry analysis of calcium flux of Ramos B cells treated or not with the PTPN22 inhibitor LTV-1 (5 μg/mL) for the indicated times followed by stimulation with anti-IgM F(ab′)2 at the indicated concentrations. FIG. 40C depicts flow cytometry analysis of calcium flux of splenocyte cells treated or not with LTV-1 (0.75 mg) twice daily for 7 days and stimulated with anti-IgM F(ab′)2 (25 μg/mL). FIG. 40D depicts flow cytometry analysis of calcium flux of splenocyte expressing PTPN22 shRNA and stimulated with anti-IgM F(ab′)2 (25 μg/mL).
(§2) However, downstream ERK phosphorylation was not affected by PTPN22 inhibition (FIG. 40A). Since PTPN22 inhibition enhanced TCR signaling in Jurkat cell line, it was investigated if PTPN22 blockade may also increase BCR signaling and calcium flux induced by BCR triggering was measured in RAMOS cells in the presence or not of LTV-1. Calcium flux was increased by PTPN22 inhibition, especially at lower concentration of BCR triggering agent (FIG. 40B). […]

The subject of data set [3] is RAMOS cells. Briefly: Calcium flux induced by BCR triggering in RAMOS cells (flow cytometry). In kind it is cell-based, human. The note with it: LTV-1 5 μg/mL, anti-IgM F(ab′)2, especially at lower concentration of BCR triggering agent. The procedure: as §1, §2
A general note: A change in cytosolic calcium serves as a functional read-out for many receptors and channels.

The subject of data set [4] is mature naive B cells. Briefly: Peripheral B cell tolerance checkpoint in NSG+thymus mouse carrying the 1858T PTPN22 allele. In kind it is in vivo, NSG mouse engrafted with human fetal HSCs and thymic tissue. The note with it: LTV-1 0.75 mg twice daily for a month. The procedure:
FIG. 41A depicts a schematic diagram depicting the LTV-1 PTPN22 inhibitor treatment strategy. A NSG+thymus mouse generated with CD34^+ HSCs and thymic graft carrying the 1858T PTPN22 allele was injected twice daily with 0.75 mg of PTPN22 inhibitor for four weeks. FIG. 41B depicts the frequencies of HEp-2 reactive mature naive B cells from NSG+thymus mice treated or not with the PTPN22 inhibitor were determined. […] For each B cell fraction, the frequency of reactive (filled area) and non-reactive (open area) clones is summarized in pie charts with the total number of clones tested indicated in the center. In summarized reactivity panels on the right, each symbol represents either a subject or a humanized mouse. Averages are shown with a bar. Statistically significant differences are indicated ****P≤0.0001, ***P≤0.001. FIG. 41C depicts the frequencies of polyreactive mature naive B cells from NSG+thymus mice treated or not with the PTPN22 inhibitor were determined. […] For each B cell fraction, the frequency of reactive (filled area) and non-reactive (open area) clones is summarized in pie charts with the total number of clones tested indicated in the center. In summarized reactivity panels on the right, each symbol represents either a subject or a humanized mouse. Averages are shown with a bar. Statistically significant differences are indicated ****P≤0.0001, ***P≤0.001. […]

Turning to “shRNA #1: shRNA targeting human PTPN22, 5′-CTAGTGCTCTTGGTGTATATT-3′, delivered by GFP-tagged lentivirus”, the “inhibition of PTPN22 expression detected by western blot” value in data set [1] is “about 80%”.
`Cc1ccccc1N1C(=O)/C(=C/c2ccc(OCc3cccc(C(=O)O)c3)cc2)C(=O)NC1=S` [LTV-1]: the “phosphorylation of SHIP1 at position Y2010” value in data set [2] was “decreases”. In addition, in data set [3], the “calcium flux induced by BCR triggering” value is on record as “increased”. Besides, the “impaired peripheral B cell tolerance checkpoint (autoreactive mature naive B cells)” value in data set [4] is “effectively restored”.

For the origin of these results see patent publication US11311543B2, “Compositions and methods for inhibiting PTPN22” (YALE UNIVERSITY, priority 2016, dated 2022).
